Test results published in ChEMBL document CHEMBL1933062, “Synthesis of purine N9-[2-hydroxy-3-O-(phosphonomethoxy)propyl] derivatives and their side-chain modified analogs as potential antimalarial agents” (Bioorg Med Chem, 2012).
pKi: −log10 of the molar value. Active and inactive are the calls of the source. The rule behind the calls is not given here.

Experiments:
[1] = molecular target: T1, Hypoxanthine-guanine phosphoribosyltransferase (Homo sapiens, UniProt P00492); assay: (§1) Inhibition of human HGPRT by spectrophotometric analysis in absence of PPi
T1 sequence (P00492 whole entry): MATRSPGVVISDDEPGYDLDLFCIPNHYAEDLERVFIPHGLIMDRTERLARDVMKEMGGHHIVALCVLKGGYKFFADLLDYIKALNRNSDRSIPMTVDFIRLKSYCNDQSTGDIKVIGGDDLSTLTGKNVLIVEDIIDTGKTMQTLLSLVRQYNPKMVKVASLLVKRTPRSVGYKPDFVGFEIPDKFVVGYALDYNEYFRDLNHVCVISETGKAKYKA

[2] = (§2) Inhibition of Plasmodium falciparum HGPRT by spectrophotometric analysis in absence of PPi
[3] = (§3) Inhibition of Plasmodium falciparum HGPRT by spectrophotometric analysis in presence of 52 uM PPi
[4] = (§4) Inhibition of Plasmodium vivax HGPRT by spectrophotometric analysis in absence of PPi
[5] = (§5) Inhibition of Plasmodium vivax HGPRT by spectrophotometric analysis in presence of 52 uM PPi
[6] = Selectivity ratio of Ki for human HGPRT to Ki for Plasmodium falciparum HGPRT
[7] = Selectivity ratio of Ki for human HGPRT to Ki for Plasmodium vivax HGPRT
[8] = molecular target: T2, Hypoxanthine-guanine phosphoribosyltransferase (Homo sapiens) (UniProt P00492); assay: Inhibition of human HGPRT at >= 100 uM by spectrophotometric analysis in absence of PPi
T2 sequence (whole entry): T1 sequence (P00492 whole entry)

[9] = molecular target: T2, Hypoxanthine-guanine phosphoribosyltransferase (Homo sapiens); assay: Inhibition of human HGPRT at >= 100 uM by spectrophotometric analysis in presence of 52 uM PPi
Plasmodium falciparum [10] = assay: Inhibition of Plasmodium falciparum HGPRT at >= 100 uM by spectrophotometric analysis in absence of PPi
Plasmodium falciparum [11] = assay: Inhibition of Plasmodium falciparum HGPRT at >= 100 uM by spectrophotometric analysis in presence of 52 uM PPi
Plasmodium vivax [12] = assay: Inhibition of Plasmodium vivax HGPRT at >= 100 uM by spectrophotometric analysis in absence of PPi
Plasmodium vivax [13] = assay: Inhibition of Plasmodium vivax HGPRT at >= 100 uM by spectrophotometric analysis in presence of 52 uM PPi
[14] = molecular target: T2, Hypoxanthine-guanine phosphoribosyltransferase (Homo sapiens); assay: Inhibition of human HGPRT at >= 30 uM by spectrophotometric analysis in presence of 52 uM PPi
Plasmodium falciparum [15] = assay: Inhibition of Plasmodium falciparum HGPRT at >= 30 uM by spectrophotometric analysis in presence of 52 uM PPi
Plasmodium vivax [16] = assay: Inhibition of Plasmodium vivax HGPRT at >= 30 uM by spectrophotometric analysis in presence of 52 uM PPi
[17] = molecular target: T2, Hypoxanthine-guanine phosphoribosyltransferase (Homo sapiens); assay: Inhibition of human HGPRT at >= 30 uM by spectrophotometric analysis in absence of PPi
[18] = molecular target: T2, Hypoxanthine-guanine phosphoribosyltransferase (Homo sapiens); assay: as §1
[19] = molecular target: T2, Hypoxanthine-guanine phosphoribosyltransferase (Homo sapiens); assay: Inhibition of human HGPRT by spectrophotometric analysis in presence of 52 uM PPi
Plasmodium falciparum [20] = assay: as §2
Plasmodium falciparum [21] = assay: as §3
Plasmodium vivax [22] = assay: as §4
Plasmodium vivax [23] = assay: as §5

| pKi [1] | Ratio Ki [6] | Ratio Ki [7] | inhibition [14] | SMILES | pKi [2] | pKi [3] | pKi [4] | pKi [5] | also measured |
| --- | --- | --- | --- | --- | --- | --- | --- | --- | --- |
| 5.40 | 2.8 | 0.4 |  | Nc1nc2c(ncn2CC(O)COCP(=O)(O)O)c(=O)[nH]1 (stereo not given) | 5.85 | 6.30 | 5.00 | 5.55 |  |
|  |  |  |  | O=C(O)COC(COCP(=O)(O)O)Cn1cnc2c(=O)[nH]cnc21 (stereo not given) |  |  |  |  | inhibition [8]: inactive; inhibition [9]: inactive; inhibition (Plasmodium falciparum [10]): inactive; inhibition (Plasmodium falciparum [11]): inactive; inhibition (Plasmodium vivax [12]): inactive; inhibition (Plasmodium vivax [13]): inactive |
| 5.30 | 1 | 0.2 | inactive | Nc1nc2c(ncn2CC(COCP(=O)(O)O)OCC(=O)O)c(=O)[nH]1 (stereo not given) | 5.30 |  | 4.57 |  | inhibition (Plasmodium falciparum [15]): inactive; inhibition (Plasmodium vivax [16]): inactive |
|  | > 50 | > 25 | inactive | O=c1[nH]cnc2c1ncn2CC(O)COCP(=O)(O)O (stereo not given) | 5.70 | 6.52 | 5.30 | 6.05 | inhibition [17]: inactive |
|  |  |  |  | O=c1[nH]cnc2c1ncn2/C=C\COCP(=O)(O)O |  |  |  |  | inhibition [18]: inactive; inhibition [19]: inactive; inhibition (Plasmodium falciparum [20]): inactive; inhibition (Plasmodium falciparum [21]): inactive; inhibition (Plasmodium vivax [22]): inactive; inhibition (Plasmodium vivax [23]): inactive |
